According to publication PMC6770154, “A Multi-Biochemical and In Silico Study on Anti-Enzymatic Actions of Pyroglutamic Acid against PDE-5, ACE, and Urease Using Various Analytical Techniques: Unexplored Pharmacological Properties and Cytotoxicity Evaluation” (Biomolecules, 2019):

Assays:
Jack bean urease (JBU) = Jack bean urease (JBU) (Canavalia ensiformis, UniProt P07374); assay: ESI-MS monitoring of urea depletion; format: biochemical
[1] = target: T1, phosphodiesterase-5A1 (PDE5A1) (Homo sapiens, UniProt O76074); assay: biochemical
T1 construct: gene PDE5A

[2] = target: human angiotensin-converting enzyme (ACE) (Homo sapiens, UniProt P12821); assay: spectrophotometric hippuric acid formation, % inhibition at […]; format: biochemical
Chain of human angiotensin-converting enzyme (ACE) (P12821 30-1306): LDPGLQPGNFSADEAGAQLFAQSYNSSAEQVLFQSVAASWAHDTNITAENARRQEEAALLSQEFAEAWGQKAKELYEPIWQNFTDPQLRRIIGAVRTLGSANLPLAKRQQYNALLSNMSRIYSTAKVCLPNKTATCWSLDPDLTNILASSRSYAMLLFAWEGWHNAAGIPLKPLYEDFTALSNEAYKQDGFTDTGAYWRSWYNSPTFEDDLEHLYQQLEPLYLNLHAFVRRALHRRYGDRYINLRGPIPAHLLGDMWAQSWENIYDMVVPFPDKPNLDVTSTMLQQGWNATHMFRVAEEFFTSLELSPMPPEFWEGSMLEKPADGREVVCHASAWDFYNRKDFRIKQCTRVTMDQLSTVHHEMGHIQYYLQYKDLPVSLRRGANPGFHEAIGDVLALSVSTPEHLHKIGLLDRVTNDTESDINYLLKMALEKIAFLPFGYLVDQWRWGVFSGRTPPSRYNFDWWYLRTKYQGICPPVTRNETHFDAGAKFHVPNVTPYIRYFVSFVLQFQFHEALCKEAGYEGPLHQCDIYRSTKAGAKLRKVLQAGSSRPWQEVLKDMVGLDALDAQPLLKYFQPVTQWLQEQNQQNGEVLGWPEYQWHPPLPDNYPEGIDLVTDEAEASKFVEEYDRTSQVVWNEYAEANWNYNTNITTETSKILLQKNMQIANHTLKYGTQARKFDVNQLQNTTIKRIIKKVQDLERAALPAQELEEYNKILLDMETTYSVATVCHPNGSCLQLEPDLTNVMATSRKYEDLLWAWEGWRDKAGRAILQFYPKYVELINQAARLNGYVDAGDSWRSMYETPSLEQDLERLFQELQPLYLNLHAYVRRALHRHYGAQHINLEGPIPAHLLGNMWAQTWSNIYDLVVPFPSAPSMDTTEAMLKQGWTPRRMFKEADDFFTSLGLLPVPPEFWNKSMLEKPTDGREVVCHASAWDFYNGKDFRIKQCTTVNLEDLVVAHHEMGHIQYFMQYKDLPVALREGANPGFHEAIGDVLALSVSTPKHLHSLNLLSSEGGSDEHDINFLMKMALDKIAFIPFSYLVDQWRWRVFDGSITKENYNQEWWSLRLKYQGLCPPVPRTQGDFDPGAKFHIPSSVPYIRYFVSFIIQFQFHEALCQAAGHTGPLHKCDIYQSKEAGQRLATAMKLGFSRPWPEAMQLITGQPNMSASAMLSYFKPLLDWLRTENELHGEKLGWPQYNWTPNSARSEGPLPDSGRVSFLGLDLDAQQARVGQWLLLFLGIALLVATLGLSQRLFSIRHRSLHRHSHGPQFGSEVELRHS

Chain of Jack bean urease (JBU) (P07374 whole entry, looked up): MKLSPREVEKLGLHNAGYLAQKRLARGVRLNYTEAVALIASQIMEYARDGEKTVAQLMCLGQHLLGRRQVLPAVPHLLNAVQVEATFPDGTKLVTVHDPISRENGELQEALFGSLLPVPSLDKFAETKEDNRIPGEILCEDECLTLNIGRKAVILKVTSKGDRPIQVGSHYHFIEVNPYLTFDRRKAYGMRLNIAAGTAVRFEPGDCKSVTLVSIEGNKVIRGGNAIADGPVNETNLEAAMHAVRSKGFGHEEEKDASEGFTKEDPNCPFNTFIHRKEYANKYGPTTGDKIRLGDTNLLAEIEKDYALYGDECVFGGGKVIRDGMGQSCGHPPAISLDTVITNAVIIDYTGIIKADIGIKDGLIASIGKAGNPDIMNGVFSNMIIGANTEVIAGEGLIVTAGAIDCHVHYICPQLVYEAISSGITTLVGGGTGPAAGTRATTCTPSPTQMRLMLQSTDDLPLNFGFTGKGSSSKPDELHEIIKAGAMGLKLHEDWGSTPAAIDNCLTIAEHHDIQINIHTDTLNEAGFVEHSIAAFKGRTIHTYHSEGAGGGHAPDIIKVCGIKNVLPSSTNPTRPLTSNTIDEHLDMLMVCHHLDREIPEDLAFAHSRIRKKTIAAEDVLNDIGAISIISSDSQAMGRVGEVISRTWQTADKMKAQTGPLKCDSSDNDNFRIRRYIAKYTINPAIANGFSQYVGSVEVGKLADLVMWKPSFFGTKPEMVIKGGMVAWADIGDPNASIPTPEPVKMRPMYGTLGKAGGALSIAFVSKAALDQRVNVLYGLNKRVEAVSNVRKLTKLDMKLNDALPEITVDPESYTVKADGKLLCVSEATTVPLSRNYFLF

| Compound | IC50 (Jack bean urease (JBU)) | IC50 [1] | inhibition at 20 µg/mL [2] |
| --- | --- | --- | --- |
| CC(=O)NO [AHA, acetohydroxamic acid, reference compound] | 3.9 µM |  |  |
| O=C1CC[C@@H](C(=O)O)N1 [pGlu, pyroglutamic acid] | 1.8 µM | 5.23 ± 1.33 µM | 98.2 ± 1.12% |
